From patent US11554116B2, “Agent for preventing and/or treating alzheimer's disease” (KYOTO UNIVERSITY, priority 2017, dated 2023) come the findings set out here.

This experiment concerns Aβ production (Aβ1-40, 1-42 in culture supernatant). The experiment in a line: Aβ assay in cerebral cortex nerve cells induced from familial AD patient iPS cells (PSEN1 G384A). The class given is cell-based, human.
Setting [1] is: added at 0.0016, 0.008, 0.04, 0.2, 1, 5, 25 μM to cerebral cortex nerve cells, 48 hr.

Counter-ions that a name gives are not always drawn. Like-named read-outs stand apart in the source and are kept apart here.

Turning to `CC(C)C[C@H]1C(=O)N2CCC[C@H]2[C@]2(O)O[C@](NC(=O)[C@@H]3C=C4c5cccc6[nH]cc(c56)C[C@H]4N(C)C3)(C(C)C)C(=O)N12` [Alpha-Ergocryptine, α-ergocryptine], the Aβ42/40 ratio entry was “did not change”; the Aβ production-lowering action entry was “showed an Aβ production-lowering action similar to that of bromocriptine”; the “lowering of Aβ42 subtype compared with Aβ40” value was “lowered Aβ40 and 42 to the same degree”.

As to `C=CCN1C[C@H](C(=O)N(CCCN(C)C)C(=O)NCC)C[C@@H]2c3cccc4[nH]cc(c34)C[C@H]21` [Cabergoline], for the setting “at 25 μM, cerebral cortex nerve cells, 48 hr”, the Aβ production-lowering action entry was “showed an Aβ production-lowering action”.

`CC(C)[C@@]1(NC(=O)[C@@H]2C[C@@H]3c4cccc5[nH]cc(c45)C[C@H]3N(C)C2)O[C@@]2(O)[C@@H]3CCCN3C(=O)[C@H](Cc3ccccc3)N2C1=O` [Dihydroergocristine mesylate, dihydroergocristine]: the Aβ production-lowering action result is reported as “showed a similar Aβ production-lowering action”.

For the compound `CN1C[C@H](C(=O)N[C@]2(C)O[C@@]3(O)[C@@H]4CCCN4C(=O)[C@H](Cc4ccccc4)N3C2=O)C[C@@H]2c3cccc4[nH]cc(c34)C[C@H]21.CS(=O)(=O)O` [Dihydroergotamine Mesylate, dihydroergotamine], the Aβ production-lowering action entry is on record as “showed a similar Aβ production-lowering action”.

Turning to `CC(C)[C@@]1(NC(=O)[C@@H]2C=C3c4cccc5[nH]cc(c45)C[C@H]3N(C)C2)O[C@@]2(O)[C@@H]3CCCN3C(=O)[C@H](Cc3ccccc3)N2C1=O` [Ergocristine, ergocristine], the Aβ production-lowering action result was “showed a similar Aβ production-lowering action”.

In the case of `CN1C[C@H](C(=O)N[C@]2(C)O[C@@]3(O)[C@@H]4CCCN4C(=O)[C@H](Cc4ccccc4)N3C2=O)C=C2c3cccc4[nH]cc(c34)C[C@H]21.CN1C[C@H](C(=O)N[C@]2(C)O[C@@]3(O)[C@@H]4CCCN4C(=O)[C@H](Cc4ccccc4)N3C2=O)C=C2c3cccc4[nH]cc(c34)C[C@H]21.O=C(O)C(O)C(O)C(=O)O` [Ergotamine Tartrate, ergotamine], the Aβ production-lowering action entry was “showed a similar Aβ production-lowering action”.

On to `Cc1cccc(C(=O)NCN2CCN(c3ccccc3C#N)CC2)c1` [PD168077], for which the “change of Aβ production” value under setting [1] was “none of the compounds changed Aβ production”.

In the case of `CCCN1C[C@H](CSC)C[C@@H]2c3cccc4[nH]cc(c34)C[C@H]21` [Pergolide mesylate], the Aβ production-lowering action result (at 5, 25 μM, cerebral cortex nerve cells, 48 hr) is given as “showed an Aβ production-lowering action”.

For `CCCN[C@H]1CCc2nc(N)sc2C1` [Pramipexole dihydrochloride], the “change of Aβ production” value under setting [1] is recorded as “none of the compounds changed Aβ production”.

With `CCCN(CCC)CCc1cccc2c1CC(=O)N2` [Ropinirole hydrochloride], the “change of Aβ production” value under setting [1] was “none of the compounds changed Aβ production”.

For the compound `Oc1cc2c(cc1O)C(c1ccccc1)CNCC2` (stereo not drawn) [SKF38393], the “change of Aβ production” value under setting [1] is “none of the compounds changed Aβ production”.

In the case of `C=CCN1CCc2nc(N)sc2CC1` [Talipexole], the “change of Aβ production” value under setting [1] is given as “none of the compounds changed Aβ production”.

For `CC(C)C[C@H]1C(=O)N2CCC[C@H]2[C@]2(O)O[C@](NC(=O)[C@@H]3C=C4c5cccc6[nH]c(Br)c(c56)C[C@H]4N(C)C3)(C(C)C)C(=O)N12` [bromocriptine], the Aβ42/40 ratio entry is listed as “lower Aβ42/40 ratio”, the Aβ production-lowering action entry was “decreases the production of Aβ” and the “lowering of Aβ42 subtype compared with Aβ40” value is recorded as “more efficiently reduced the production of Aβ42 subtype than Aβ40”.

Turning to `Cl.NCCc1ccc(O)c(O)c1` [dopamine hydrochloride], the “change of Aβ production” value is on record as “none of the compounds changed Aβ production”.
